Where a chain is given by its changes, count along the chain named.
Experiments:
HLA-DPB1*0201 = target: T1, HLA-DPB1*0201 (Homo sapiens, UniProt P04440+P20036, A65V/A84D/A85E/K98E); experiment: biochemical; format: binding
T1 sequence (P04440 30-258 A65V/A84D/A85E/K98E): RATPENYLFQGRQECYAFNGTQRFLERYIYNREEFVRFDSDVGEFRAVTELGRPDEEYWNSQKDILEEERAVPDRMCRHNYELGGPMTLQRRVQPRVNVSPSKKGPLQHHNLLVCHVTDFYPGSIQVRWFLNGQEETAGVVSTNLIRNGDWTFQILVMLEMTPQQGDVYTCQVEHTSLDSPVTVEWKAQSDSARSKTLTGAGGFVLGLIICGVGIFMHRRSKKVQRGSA
T1 sequence (P20036 29-260): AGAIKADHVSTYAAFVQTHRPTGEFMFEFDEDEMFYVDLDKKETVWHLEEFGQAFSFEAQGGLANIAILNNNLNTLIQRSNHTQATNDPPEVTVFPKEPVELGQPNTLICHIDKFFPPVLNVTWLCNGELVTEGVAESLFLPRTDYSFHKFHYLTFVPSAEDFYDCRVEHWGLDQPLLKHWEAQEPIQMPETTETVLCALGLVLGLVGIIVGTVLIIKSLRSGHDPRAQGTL

HLA-DPB1*0402 = target: T2, HLA-DPB1*0402 (Homo sapiens, UniProt P04440+P20036, A65V/A84D/A85E/L207M); experiment: biochemical; format: binding
T2 sequence (P04440 30-258 A65V/A84D/A85E): T1 sequence (P04440 30-258 A65V/A84D/A85E/K98E) with E69K
T2 sequence (P20036 29-260): T1 sequence (P20036 29-260)

Structure (SMILES) | IC50 (HLA-DPB1*0201) [nM] | IC50 (HLA-DPB1*0402) [nM]
CC[C@H](C)[C@H](NC(=O)[C@H](CC(=O)O)NC(=O)[C@@H](N)CCCCN)C(=O)N[C@@H](CC(C)C)C(=O)N[C@@H](CCC(=O)O)C(=O)N[C@@H](CC(=O)O)C(=O)N[C@@H](CCC(=O)O)C(=O)N[C@@H](CCCNC(=N)N)C(=O)N[C@@H](C)C(=O)N[C@@H](C)C(=O)N[C@H](C(=O)N[C@@H](CC(=O)O)C(=O)N[C@H](C(=O)N[C@@H](Cc1ccc(O)cc1)C(=O)N[C@@H](CS)C(=O)O)[C@@H](C)O)C(C)C | 10500 | 4200
CSCC[C@H](NC(=O)[C@H](CCCNC(=N)N)NC(=O)[C@H](CCSC)NC(=O)[C@H](CCCCN)NC(=O)[C@H](CO)NC(=O)[C@@H](NC(=O)[C@@H]1CCCN1C(=O)[C@@H](N)CCCCN)C(C)C)C(=O)N[C@@H](C)C(=O)N[C@H](C(=O)N1CCC[C@H]1C(=O)N[C@@H](CC(C)C)C(=O)N[C@@H](CC(C)C)C(=O)N[C@@H](CCSC)C(=O)N[C@@H](CCC(N)=O)C(=O)N[C@@H](C)C(=O)N[C@@H](CC(C)C)C(=O)N1CCC[C@H]1C(=O)O)[C@@H](C)O | 161 | 138

Reference: publication PMC2935290 (Journal of immunology (Baltimore, Md. : 1950), 2010)
